In patent publication US9481654B2, “Compositions and methods for inhibition of the JAK pathway” (Rigel Pharmaceuticals, Inc., priority 2006, dated 2016):
Where a name gives a salt, the structure may show the parent alone.

What was measured:
[1] = system: IL-4 stimulated CD23 upregulation in human Ramos B cells (JAK-1/JAK-3, Stat-6); test: Assay for Ramos B-Cell Line Stimulated with IL-4 (CD23 upregulation, FACS); assay type: cell-based; conditions: Table III Example 3
From the text: One means of assaying for such inhibition is detection of the effect of the 2,4-pyrimidinediamine compounds on the upregulation of downstream gene products. In the Ramos/IL4 assay, B-cells are stimulated with the cytokine Interleukin-4 (IL-4) leading to the activation of the JAK/Stat pathway through phosphorylation of the JAK family kinases, JAK1 and JAK3, which in turn phosphorylate and activate the transcription factor Stat-6. […] To study the effect of inhibitors (e.g., the 2,4-substituted pyrimindinediamine compounds described herein) on the JAK1 and JAK3 kinases, human Ramos B cells are stimulated with human IL-4. 20 to 24 hours post stimulation, cells are stained for upregulation of CD23 and analyzed using flow cytometry (FACS).
B-cells stimulated with cytokine Interleukin-4 (IL-4) activate the JAK/Stat pathway through phosphorylation of the JAK family kinases, JAK-1 and JAK-3, which in turn phosphorylate and activate the transcription factor Stat-6. […] To study the effect of inhibitors on the JAK family kinases, human Ramos B cells are stimulated with human IL-4.
Cells were maintained at a density of 3.5×10^5. The day before the experiment, Ramos B-cells were diluted to 3.5×10^5 cells/mL to ensure that they were in a logarithmic growth phase.
Cells were spun down and suspended in RPMI with 5% serum. 5×10^4 cells were used per point in a 96-well tissue culture plate. Cells were pre-incubated with compound or DMSO (Sigma-Aldrich, St. Louis, Mo., Cat No. D2650) vehicle control for 1 hour in a 37° C. incubator. Cells were then stimulated with IL-4 (Peprotech Inc., Rocky Hill, N.J., Cat No. 200-04) for a final concentration of 50 units/mL for 20-24 hours. […] Detection was performed using a BD LSR I System Flow Cytometer, purchased from Becton Dickinson Biosciences of San Jose, Calif.

[2] = system: primary human T-cells (IL-2 induced proliferation, JAK-1/JAK-3, Stat-5); test: Primary Human T-Cell Proliferation Assay Stimulated with IL-2 (CellTiter-Glo); assay type: cell-based; conditions: Table III Example 4
Experimental: In this assay, primary human T-cells derived from peripheral blood and pre-activated through stimulation of the T-cell receptor and CD28, proliferate in culture in response to the cytokine Interleukin-2 (IL-2). This proliferative response is dependent on the activation of JAK1 and JAK3 tyrosine kinases, which phosphorylate and activate the transcription factor Stat-5. The primary human T-cells are incubated with the 2,4-pyrimidinediamine compounds in the presence of IL-2 for 72 hours, and at the assay endpoint intracellular ATP concentrations are measured to assess cell viability. A reduction in cell proliferation compared to control conditions is indicative of inhibition of the JAK kinase pathway.
Primary human T-cells derived from peripheral blood and pre-activated through stimulation of the T-cell receptor and CD28 proliferate in vitro in response to the cytokine Interleukin-2 (IL-2). This proliferative response is dependent on the activation of JAK-1 and JAK-3 tyrosine kinases, which phosphorylate and activate the transcription factor Stat-5.
Human primary T cells were prepared as follows. […] The lymphocytes at the serum: ficoll interface were recovered and washed twice with 5 volumes of PBS. […] The primary T-cells were stimulated for 3 to 4 days, then transferred to a fresh flask and maintained in RPMI with 10% FBS and 40 U/mL IL-2.
Primary T-cells were washed twice with PBS to remove the IL-2 and resuspended in Yssel's medium at 2×10^6 cells/mL. 50 μL of cell suspension containing 80 U/mL IL-2 was added to each well of a flat bottom 96 well black plate. For the unstimulated control, IL-2 was omitted from the last column on the plate. […] 50 μL of 2× compound was added per well in duplicate and the cells were allowed to proliferate for 72 hours at 37° C.
Proliferation was measured using CellTiter-Glo® Luminescent Cell Viability Assay (Promega), which determines the number of viable cells in culture based on quantitation of the ATP present, as an indicator of metabolically active cells. The substrate was thawed and allowed to come to room temperature. After mixing the Cell Titer-Glo reagent and diluent together, 100 μL was added to each well. The plates were mixed on an orbital shaker for two minutes to induce lysis and incubated at room temperature for an additional ten minutes to allow the signal to equilibrate.

Question: `C#CCNS(=O)(=O)Cc1cccc(Nc2nc(Nc3ccc(S(N)(=O)=O)cc3)ncc2F)c1` [Compound I-2, N2-(4-Aminosulfonylphenyl)-5-fluoro-N4-[3-(prop-2-ynylaminosulfonylmethyl)phenyl]-2,4-pyrimidinediamine] was tested. Which IC50 ([1]; Homo sapiens, Ramos) did it give?
Answer: 647 nM

Question: What about the IC50 ([2]; Homo sapiens, T-cell) of the same molecule?
Answer: 3730 nM

Question: `C#CCNS(=O)(=O)Cc1ccc(Nc2nc(Nc3ccc(S(N)(=O)=O)cc3)ncc2F)cc1` [Compound I-6, N2-(4-Aminosulfonylphenyl)-5-fluoro-N4-[4-(prop-2-ynylaminosulfonylmethyl)phenyl]-2,4-pyrimidinediamine] was tested. Which IC50 ([1]; Homo sapiens, Ramos) did it give?
Answer: 559 nM

Question: And the IC50 ([2]; Homo sapiens, T-cell)?
Answer: 536 nM

Question: For `C#CCNS(=O)(=O)c1cccc(Nc2ncc(F)c(Nc3ccc(CNS(=O)(=O)C4CC4)cc3)n2)c1` [Compound I-7, 5-Fluoro-N4-[4-(cyclopropylsulfonylaminomethyl)phenyl]-N2-[3-(prop-2-ynylaminosulfonyl)phenyl]-2,4-pyrimidinediamine], which IC50 ([1]; Homo sapiens, Ramos) is on record?
Answer: 73.5 nM

Question: What about the IC50 ([2]; Homo sapiens, T-cell) of the same molecule?
Answer: 113 nM

Question: How did the IC50 [1] turn out when `CCS(=O)(=O)N[C@@H](C)c1ccc(Nc2nc(Nc3ccc(S(N)(=O)=O)cc3)ncc2F)cc1` [Compound I-26, N2-(4-aminosulfonyl)phenyl-N4-[4-(1S-ethylsulfonylamino)ethyl]phenyl-5-fluoro-2,4-pyrimidinediamine] was run?
Answer: 252 nM

Question: And the IC50 [2]?
Answer: 1160 nM

Question: What does the source list for `CCS(=O)(=O)N[C@H](C)c1ccc(Nc2nc(Nc3ccc(S(N)(=O)=O)cc3)ncc2F)cc1` [Compound I-29, N2-(4-aminosulfonyl)phenyl-N4-[4-(1R-ethylsulfonylamino)ethyl]phenyl-5-fluoro-2,4-pyrimidinediamine]?
Answer: IC50 [1]: 203 nM; IC50 [2]: 882 nM

Question: For `NS(=O)(=O)c1ccc(Nc2ncc(F)c(Nc3cccc(CNS(=O)(=O)C4CC4)c3)n2)cc1` [Compound I-32, N2-(4-aminosulfonyl)phenyl-N4-(3-cyclopropylsulfonylaminomethyl)phenyl-5-fluoro-2,4-pyrimidinediamine], which IC50 [1] is on record?
Answer: 364 nM

Question: And the IC50 [2]?
Answer: 1560 nM

Question: Which results are given for `NS(=O)(=O)c1ccc(Nc2ncc(F)c(Nc3ccc(CNS(=O)(=O)c4cccs4)cc3)n2)cc1` [Compound I-35, N2-(4-aminosulfonyl)phenyl-5-fluoro-N4-[4-(thiophen-2-yl)sulfonylaminomethyl]phenyl-2,4-pyrimidinediamine]?
Answer: IC50 [1]: 133 nM; IC50 [2]: 436 nM

Question: With `Cc1nc(N)sc1S(=O)(=O)NCc1ccc(Nc2nc(Nc3cccc(S(N)(=O)=O)c3)ncc2F)cc1` [Compound I-41, N4-[4-(2-amino-4-methylthiazol-5-yl)sulfonylaminomethyl]phenyl-N2-(3-aminosulfonyl)phenyl-5-fluoro-2,4-pyrimidinediamine] as the molecule, how does the IC50 [1] read?
Answer: 1020 nM

Question: What about the IC50 [2] of the same molecule?
Answer: 2120 nM

Question: Which IC50 [1] does the source give for `CC(=O)Nc1nc(C)c(S(=O)(=O)NCc2ccc(Nc3nc(Nc4cccc(S(N)(=O)=O)c4)ncc3F)cc2)s1` [Compound I-42, N4-[4-(2-acetylamino-4-methylthiazol-5-yl)sulfonylaminomethyl]phenyl-N2-(3-aminosulfonyl)phenyl-5-fluoro-2,4-pyrimidinediamine] here?
Answer: 1150 nM

Question: What about the IC50 [2] of the same molecule?
Answer: 3220 nM

Question: For `CC(=O)Nc1nc(C)c(S(=O)(=O)NCc2ccc(Nc3nc(Nc4ccc(C)c(S(N)(=O)=O)c4)ncc3F)cc2)s1` [Compound I-44, N4-[4-(2-acetylamino-4-methylthiazol-5-yl)sulfonylaminomethyl]phenyl-N2-(3-aminosulfonyl-4-methyl)phenyl-5-fluoro-2,4-pyrimidinediamine], which IC50 [1] is on record?
Answer: 1220 nM

Question: And the IC50 [2]?
Answer: 4160 nM

Question: For `CCS(=O)(=O)NCc1ccc(Nc2nc(Nc3ccc(S(N)(=O)=O)cc3)ncc2F)cc1Cl` [Compound I-74, N2-(4-aminosulfonyl)phenyl-N4-(3-chloro-4-ethylsulfonylaminomethyl)phenyl-5-fluoro-2,4-pyrimidinediamine], which IC50 [1] is on record?
Answer: 362 nM

Question: What about the IC50 [2] of the same molecule?
Answer: 2250 nM

Question: For `CCS(=O)(=O)NCc1ccc(Nc2nc(Nc3ccc(C)c(S(N)(=O)=O)c3)ncc2F)cc1Cl` [Compound I-76, N2-(3-aminosulfonyl-4-methyl)phenyl-N4-(3-chloro-4-ethylsulfonylaminomethyl)phenyl-5-fluoro-2,4-pyrimidinediamine], which IC50 [1] is on record?
Answer: 169 nM

Question: What about the IC50 [2] of the same molecule?
Answer: 463 nM

Question: `NS(=O)(=O)c1cc(Nc2ncc(F)c(Nc3ccc(CNS(=O)(=O)C4CC4)cc3)n2)cc(S(N)(=O)=O)c1` [Compound I-82, N4-(4-cyclopropylsulfonylaminomethyl)phenyl-N2-(3,5-diaminosulfonyl)phenyl-5-fluoro-2,4-pyrimidinediamine] was tested. Which IC50 [1] did it give?
Answer: 1100 nM

Question: What about the IC50 [2] of the same molecule?
Answer: 964 nM

Question: `CS(=O)(=O)CS(=O)(=O)NCc1ccc(Nc2nc(Nc3ccc(S(N)(=O)=O)cc3)ncc2F)cc1` [Compound I-85, N2-(4-aminosulfonyl)phenyl-5-fluoro-N4-[4-(methylsulfonylmethylsulfonylamino)methyl]phenyl-2,4-pyrimidinediamine] was tested. Which IC50 [1] did it give?
Answer: 3100 nM

Question: And the IC50 [2]?
Answer: 3900 nM

Question: `CCCC(=O)N(Cc1cccc(Nc2nc(Nc3cccc(S(N)(=O)=O)c3)ncc2C)c1)S(=O)(=O)C1CC1` [Compound I-224, N2-(3-aminosulfonyl)phenyl-N4-[3-(N-butyryl-N-cyclopropylsulfonyl)aminomethyl]phenyl-5-methyl-2,4-pyrimidinediamine] was tested. Which IC50 [1] did it give?
Answer: 21.8 nM

Question: For `CCCC(=O)N(COC(C)=O)S(=O)(=O)c1cccc(Nc2ncc(C)c(Nc3cccc(CNS(=O)(=O)C4CC4)c3)n2)c1` [Compound I-225, N2-[3-(N-acetoxymethyl-N-butyryl)aminosulfonyl]phenyl-N4-(3-cyclopropylsulfonylaminomethyl)phenyl-5-methyl-2,4-pyrimidinediamine], which IC50 [1] is on record?
Answer: 115 nM

Question: How did the IC50 [1] turn out when `CCC(=O)NS(=O)(=O)c1cccc(Nc2ncc(C)c(Nc3cccc(CN(C(=O)CC)S(=O)(=O)C4CC4)c3)n2)c1` [Compound I-226, N4-[3-(N-cyclopropylsulfonyl-N-propionyl)aminomethyl]phenyl-5-methyl-N2-(3-propionylaminosulfonyl)phenyl-2,4-pyrimidinediamine Choline salt] was run?
Answer: 5490 nM

Question: How did the IC50 [1] turn out when `Cc1ccc(Nc2ncc(F)c(Nc3ccc4c(c3)CN(S(=O)(=O)C3CC3)C4)n2)cc1S(N)(=O)=O` [II-4, N2-(3-Aminosulfonyl-4-methylphenyl)-N4-[(2-cyclopropylsulfonyl)-isoindolin-5-yl]-5-fluoro-2,4-pyrimidinediamine] was run?
Answer: 720 nM

Question: Which IC50 [1] does the source give for `NS(=O)(=O)c1cccc(Nc2ncc(F)c(Nc3ccc4c(c3)CN(S(=O)(=O)C3CC3)C4)n2)c1` [II-5, N2-(3-Aminosulfonyl-phenyl)-N4-[(2-cyclopropylsulfonyl)-isoindolin-5-yl]-5-fluoro-2,4-pyrimidinediamine] here?
Answer: 698 nM

Question: Which IC50 [1] does the source give for `NS(=O)(=O)c1ccc(Nc2ncc(F)c(Nc3ccc4c(c3)CN(S(=O)(=O)C3CC3)C4)n2)cc1` [II-6, N2-(4-Aminosulfonyl-phenyl)-N4-[(2-cyclopropylsulfonyl)-isoindolin-5-yl]-5-fluoro-2,4-pyrimidinediamine] here?
Answer: 640 nM

Question: “N4-[3-(N-cyclopropylsulfonyl-N-valeryl)aminomethyl]phenyl-5-methyl-N2-(3-valerylaminosulfonyl)phenyl-2,4-pyrimidinediamine sodium salt [Compound I-221]” was tested. Which IC50 [1] did it give?
Answer: 1880 nM

Question: For “N4-[4-(N-cyclopropylsulfonyl-N-propionyl)aminomethyl]phenyl-5-methyl-N2-(4-propionylaminosulfonyl)phenyl-2,4-pyrimidinediamine sodium salt [Compound I-78]”, which IC50 [1] is on record?
Answer: 1080 nM
